Measurements taken from US8058475B2, “Substituted cyclohexylmethyl compounds” (Gruenenthal GmbH, priority 2005, dated 2011).
Where two headings read alike, the source gives them in different places.

Molecular target: human μ-opiate receptor (Homo sapiens, UniProt P35372)
Experiment: Affinity for the human μ-opiate receptor ([3H]-naloxone displacement, SPA, CHO-K1 membrane preparation)
Assay type: binding
Conditions: for inhibition at 1 µM: read-out: μ-Opioid receptor, % inhibition [1 μM]; for Ki: read-out: μ-Opioid receptor, Ki

Sequence of human μ-opiate receptor (P35372 whole entry): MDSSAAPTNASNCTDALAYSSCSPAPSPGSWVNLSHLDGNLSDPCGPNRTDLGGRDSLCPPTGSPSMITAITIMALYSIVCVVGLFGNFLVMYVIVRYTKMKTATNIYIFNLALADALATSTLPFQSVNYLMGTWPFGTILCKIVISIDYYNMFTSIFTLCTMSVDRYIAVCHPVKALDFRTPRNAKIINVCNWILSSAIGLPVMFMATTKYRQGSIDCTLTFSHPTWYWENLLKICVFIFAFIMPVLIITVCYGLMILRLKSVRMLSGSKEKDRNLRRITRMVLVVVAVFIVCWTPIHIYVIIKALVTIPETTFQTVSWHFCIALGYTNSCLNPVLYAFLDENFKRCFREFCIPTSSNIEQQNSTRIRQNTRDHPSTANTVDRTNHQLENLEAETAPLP

SMILES | inhibition at 1 µM | Ki | μ-Opioid receptor, % inhibition [1 μM] | μ-Opioid receptor, % inhibition [1 μM] (1 µM)
CN(C)C(c1cccc(F)c1)C1CCC(CNC(=O)c2csc3ccccc23)CC1 (stereo not shown) [compound 314, benzo[b]thiophene-3-carboxylic acid {4-[dimethylamino-(3-fluoro-phenyl)-methyl]-cyclohexylmethyl}-amide] | 97% | 0.0042 µM |  | 
CSc1ncccc1C(=O)NCC1CCC(C(c2ccc(Cl)cc2)N(C)C)CC1 (stereo not shown) [compound 315, N-{4-[(4-chloro-phenyl)-dimethylamino-methyl]-cyclohexylmethyl}-2-methyl-sulfanyl-nicotinamide] |  | 0.16 µM | 97% | 
CN(C)C(c1ccc(Cl)cc1)C1CCC(CNC(=O)Cc2cccs2)CC1 (stereo not shown) [compound 316, N-{4-[(4-chloro-phenyl)-dimethylamino-methyl]-cyclohexylmethyl}-2-thiophen-2-yl-acetamide] | 96% |  |  | 
CN(C)C(c1ccccc1)C1CCC(CNC(=O)C2(c3ccc(Cl)cc3)CCCC2)CC1 (stereo not shown) [compound 318, 1-(4-chloro-phenyl)-cyclopentane-carboxylic acid [4-(dimethylamino-phenyl-methyl)-cyclohexylmethyl]-amide] | 95% | 0.023 µM |  | 
COc1cccc(CC(=O)NCC2CCC(C(c3ccc(Cl)cc3)N(C)C)CC2)c1 (stereo not shown) [compound 320, N-{4-[(4-chloro-phenyl)-dimethylamino-methyl]-cyclohexylmethyl}-2-(3-methoxy-phenyl)-acetamide] | 95% | 0.028 µM |  | 
CCC(C(=O)NCC1CCC(C(c2ccccc2)N(C)C)CC1)c1ccccc1 (stereo not shown) [compound 321, N-[4-(dimethylamino-phenyl-methyl)-cyclohexylmethyl]-2-phenyl-butyramide] | 95% | 0.022 µM |  | 
CN(C)C(c1ccc(F)cc1)C1CCC(CNC(=O)CC(C)(C)C)CC1 (stereo not shown) [compound 322, N-{4-[dimethylamino-(4-fluoro-phenyl)-methyl]-cyclohexylmethyl}-3,3-dimethyl-butyramide] | 95% | 0.031 µM |  | 
CC(Oc1ccccc1)C(=O)NCC1CCC(C(c2ccccc2)N(C)C)CC1 (stereo not shown) [compound 323, N-[4-(dimethylamino-phenyl-methyl)-cyclohexylmethyl]-2-phenoxy-propionamide] | 95% | 0.015 µM |  | 
CN(C)C(c1ccccc1)C1CCC(CNC(=O)Cc2ccc(Cl)cc2)CC1 (stereo not shown) [compound 324, 2-(4-chloro-phenyl)-N-[4-(dimethylamino-phenyl-methyl)-cyclohexylmethyl]-acetamide] | 95% | 0.022 µM |  | 
CN(C)C(c1cccc(F)c1)C1CCC(CNC(=O)C2(c3ccc(Cl)cc3)CCCC2)CC1 (stereo not shown) [compound 327, 1-(4-chloro-phenyl)-cyclopentane-carboxylic acid {4-[dimethylamino-(3-fluoro-phenyl)-methyl]-cyclohexylmethyl}-amide] | 94% | 0.063 µM |  | 
CN(C)C(c1ccccc1)C1CCC(CNC(=O)c2cccs2)CC1 (stereo not shown) [compound 328, thiophene-2-carboxylic acid [4-(dimethylamino-phenyl-methyl)-cyclohexyl-methyl]-amide] | 94% | 0.016 µM |  | 
CN(C)C(c1ccccc1)C1CCC(CNC(=O)c2cc(Cl)cc(Cl)c2)CC1 (stereo not shown) [compound 329, 3,5-dichloro-N-[4-(dimethylamino-phenyl-methyl)-cyclohexylmethyl]-benzamide] | 94% | 0.035 µM |  | 
Cc1oc(-c2ccccc2)cc1C(=O)NCC1CCC(C(c2ccc(Cl)cc2)N(C)C)CC1 (stereo not shown) [compound 330, 2-methyl-5-phenyl-furan-3-carboxylic acid {4-[(4-chloro-phenyl)-dimethylamino-methyl]-cyclohexylmethyl}-amide] | 94% | 0.039 µM |  | 
CN(C)C(c1ccccc1)C1CCC(CNC(=O)c2cccc(Cl)c2)CC1 (stereo not shown) [compound 331, 3-chloro-N-[4-(dimethylamino-phenyl-methyl)-cyclohexylmethyl]-benzamide] | 93% | 0.011 µM |  | 
CN(C)C(c1ccccc1)C1CCC(CNC(=O)c2csc(-c3ccccc3)n2)CC1 (stereo not shown) [compound 335, 2-phenyl-thiazole-4-carboxylic acid [4-(dimethylamino-phenyl-methyl)-cyclohexylmethyl]-amide] | 92% | 0.033 µM |  | 
Cc1ccc(Oc2ncccc2C(=O)NCC2CCC(C(c3cccc(F)c3)N(C)C)CC2)cc1 (stereo not shown) [compound 337, N-{4-[dimethylamino-(3-fluoro-phenyl)-methyl]-cyclohexylmethyl}-2-p-tolyloxy-nicotinamide] | 92% |  |  | 
CN(C)C(c1ccccc1)C1CCC(CNC(=O)c2c(Cl)cc(Cl)cc2Cl)CC1 (stereo not shown) [compound 338, 2,4,6-trichloro-N-[4-(dimethylamino-phenyl-methyl)-cyclohexylmethyl]-benzamide] | 91% | 0.028 µM |  | 
CN(C)C(c1ccccc1)C1CCC(CNC(=O)C2(c3ccc(Cl)cc3)CCCC2)CC1 (stereo not shown) [compound 339, 1-(4-chloro-phenyl)-cyclopentane-carboxylic acid [4-(dimethylamino-phenyl-methyl)-cyclohexylmethyl]-amide] |  | 0.025 µM |  | 91%

SMILES | inhibition at 1 µM | Ki | μ-Opioid receptor, % inhibition [1 μM] | μ-Opioid receptor, % inhibition [1 μM] (1 µM)
CN(C)C(c1cccc(F)c1)C1CCC(CNC(=O)Cc2cccs2)CC1 (stereo not shown) [compound 343, N-{4-[dimethylamino-(3-fluoro-phenyl)-methyl]-cyclohexylmethyl}-2-thiophen-2-yl-acetamide] | 90% |  |  | 
CN(C)C(c1ccc(F)cc1)C1CCC(CNC(=O)c2csc3ccccc23)CC1 (stereo not shown) [compound 344, benzo[b]thiophene-3-carboxylic acid {4-[dimethylamino-(4-fluoro-phenyl)-methyl]-cyclohexylmethyl}-amide] | 90% | 0.013 µM |  | 
Cc1oc(-c2ccccc2)cc1C(=O)NCC1CCC(C(c2ccccc2)N(C)C)CC1 (stereo not shown) [compound 345, 2-methyl-5-phenyl-furan-3-carboxylic acid [4-(dimethylamino-phenyl-methyl)-cyclohexylmethyl]-amide] | 90% | 0.013 µM |  | 
CC(Oc1ccccc1)C(=O)NCC1CCC(C(c2cccc(F)c2)N(C)C)CC1 (stereo not shown) [compound 346, N-{4-[dimethylamino-(3-fluoro-phenyl)-methyl]-cyclohexylmethyl}-2-phenoxy-propionamide] | 90% | 0.065 µM |  | 
CN(C)C(c1cccs1)C1CCC(CNC(=O)c2cccc(C#N)c2)CC1 (stereo not shown) [compound 347, 3-cyano-N-[4-(dimethylamino-thiophen-2-yl-methyl)-cyclohexylmethyl]-benzamide] | 90% | 0.026 µM |  | 
COc1cccc(CC(=O)NCC2CCC(C(c3ccccc3)N(C)C)CC2)c1 (stereo not shown) [compound 349, N-[4-(dimethylamino-phenyl-methyl)-cyclohexylmethyl]-2-(3-methoxy-phenyl)-acetamide] | 89% | 0.05 µM |  | 
CN(C)C(c1cccc(F)c1)C1CCC(CNC(=O)c2ccc(F)c(C(F)(F)F)c2)CC1 (stereo not shown) [compound 350, N-{4-[dimethylamino-(3-fluoro-phenyl)-methyl]-cyclohexylmethyl}-4-fluoro-3-trifluoromethyl-benzamide] | 89% | 0.037 µM |  | 
CCSc1ncccc1C(=O)NCC1CCC(C(c2ccc(Cl)cc2)N(C)C)CC1 (stereo not shown) [compound 351, N-{4-[(4-chloro-phenyl)-dimethylamino-methyl]-cyclohexylmethyl}-2-ethyl-sulfanyl-nicotinamide] |  | 0.058 µM | 89% | 
Cc1ccc(Oc2ncccc2C(=O)NCC2CCC(C(c3cccs3)N(C)C)CC2)cc1 (stereo not shown) [compound 352, N-[4-(dimethylamino-thiophen-2-yl-methyl)-cyclohexylmethyl]-2-p-tolyloxy-nicotinamide] | 87% |  |  | 
Cc1oc(-c2ccccc2)cc1C(=O)NCC1CCC(C(c2cccc(F)c2)N(C)C)CC1 (stereo not shown) [compound 353, 2-methyl-5-phenyl-furan-3-carboxylic acid {4-[dimethylamino-(3-fluoro-phenyl)-methyl]-cyclohexylmethyl}-amide] | 87% | 0.096 µM |  | 
CN(C)C(c1ccc(Cl)cc1)C1CCC(CNC(=O)c2ccccc2Cl)CC1 (stereo not shown) [compound 354, 2-chloro-N-{4-[(4-chloro-phenyl)-dimethylamino-methyl]-cyclohexylmethyl}-benzamide] | 86% | 0.053 µM |  | 
CN(C)C(c1ccccc1)C1CCC(CNC(=O)c2cccnc2Cl)CC1 (stereo not shown) [compound 355, 2-chloro-N-[4-(dimethylamino-phenyl-methyl)-cyclohexylmethyl]-nicotinamide] | 86% | 0.12 µM |  | 
CCCc1ccc(C(=O)NCC2CCC(C(c3cccs3)N(C)C)CC2)cc1 (stereo not shown) [compound 356, N-[4-(dimethylamino-thiophen-2-yl-methyl)-cyclohexylmethyl]-4-propyl-benzamide] | 86% | 0.12 µM |  | 
CN(C)C(c1ccccc1)C1CCC(CNC(=O)c2cccc(Br)c2)CC1 (stereo not shown) [compound 358, 3-bromo-N-[4-(dimethylamino-phenyl-methyl)-cyclohexylmethyl]-benzamide] | 86% | 0.011 µM |  | 
CN(C)C(c1ccc(F)cc1)C1CCC(CNC(=O)Cc2cccs2)CC1 (stereo not shown) [compound 359, N-{4-[dimethylamino-(4-fluoro-phenyl)-methyl]-cyclohexylmethyl}-2-thiophen-2-yl-acetamide] | 86% |  |  | 
CN(C)C(c1ccccc1)C1CCC(CNC(=O)c2ccc(Cl)cc2Cl)CC1 (stereo not shown) [compound 361, 2,4-dichloro-N-[4-(dimethylamino-phenyl-methyl)-cyclohexylmethyl]-benzamide] | 85% | 0.042 µM |  | 
Cc1cccc(C(=O)NCC2CCC(C(c3ccccc3)N(C)C)CC2)c1 (stereo not shown) [compound 362, N-[4-(dimethylamino-phenyl-methyl)-cyclohexylmethyl]-3-methyl-benzamide] | 85% | 0.06 µM |  | 
CN(C)C(c1cccc(F)c1)C1CCC(CNC(=O)c2ccccc2Br)CC1 (stereo not shown) [compound 363, 2-bromo-N-{4-[dimethylamino-(3-fluoro-phenyl)-methyl]-cyclohexylmethyl}-benzamide] | 85% | 0.038 µM |  | 
